Experimental data as given in patent US4623649A, “Substituted β-carbolines, and use thereof as medicinal agents” (Schering Aktiengesellschaft, priority 1983, dated 1986).

Legend:
[1] = target: benzodiazepine receptors; assay: in vitro displacement of 3H flunitrazepam (or 3H diazepam) from benzodiazepine receptors, rat cerebrum suspension; type: binding; conditions: rat cerebral membrane suspension, 3H flunitrazepam 1.0 nM, 0° C., pH 7.1
[2] = system: benzodiazepine receptor; assay: in vivo reduction of specific binding of 3H flunitrazepam to the benzodiazepine receptor in living brain, mice; parameters: unit not given beside the values; conditions: normally subcutaneous, 3H flunitrazepam i.v. after 15 minutes, sacrificed after another 20 minutes
[3] = target: benzodiazepine receptors; conditions: footnote * Nature 294(1981)472; cited from earlier work

| Compound | IC50, displacement of specific binding of 3H flunitrazepam (in vitro) [1] | ED50, reduction of specific binding of flunitrazepam to 50% of control (in vivo) [2] | IC50, displacement of specific binding of 3H flunitrazepam (in vitro), entry footnoted Nature 294(1981)472 [3] |
| --- | --- | --- | --- |
| CCOC(=O)c1ncc2[nH]c3ccc(C4CCCCC4)cc3c2c1C | 12 ng/mL | – | – |
| CCOC(=O)c1ncc2[nH]c3ccc(C4=CCCCCCC4)cc3c2c1C | 19 ng/mL | – | – |
| CCOC(=O)c1cc2c(cn1)[nH]c1ccc(C(C)C)cc12 | 0.9 ng/mL | – | – |
| CCOC(=O)c1ncc2[nH]c3ccc(C4CCCC(=O)C4)cc3c2c1C (stereo not drawn) | 0.6 ng/mL | – | – |
| 4-methoxymethyl-6-(1- and 2-cyclohexen-4-yl)-β-carboline-3-carboxylic acid ethyl ester | 0.7 ng/mL | 0.5 | – |
| 6-(1- and 2-cyclohexen-4-yl)-4-methoxymethyl-3-(3-ethyl-1,2,4-oxadiazol-5-yl)-β-carboline | 1.5 ng/mL | 1.9 | – |
| CCOC(=O)c1ncc2[nH]c3cccc(Cc4ccccc4)c3c2c1COC [CO2 Et, CH2 OCH3, CH2C6 H5, H, 5-benzyl-4-methoxymethyl-β-carboline-3-carboxylic acid ethyl ester] | 0.5 ng/mL | – | – |
| CCOC(=O)c1ncc2[nH]c3ccc(C(C)(C)C)cc3c2c1C [CO2 Et, Me, H, C(CH3)3, 6-tert-butyl-4-methyl-β-carboline-3-carboxylic acid ethyl ester] | 7.5 ng/mL | – | – |
| CCOC(=O)c1ncc2[nH]c3ccc(CCc4ccccc4)cc3c2c1C [CO2 Et, Me, H, CH2CH2C6 H5, 6-phenethyl-4-methyl-β-carboline-3-carboxylic acid ethyl ester] | 14 ng/mL | – | – |
| COC(=O)c1cc2c(cn1)[nH]c1ccccc12 [CO2 Me, H, H, H] | – | – | 1.9 ng/mL |
